The subject of test [1] is Actinomyces strains 12104 and LY7. The note with it: cited from earlier work.
Another test has as its system Clinical plaque strains. The note with it: mouth rinse, five human individuals; cited from earlier work.
The nature of test [2]: Bacterial coaggregation assay (A. naeslundii PK29 with S. sanguis G9B). The note with it: Actinomyces naeslundii. Type of test: cell-based, Actinomyces naeslundii PK29; Streptococcus sanguis G9B. How it is done:
(§1) A bacterial coaggregation assay was used to determine the ability of various amino sugars to interfere with lectin-mediated binding among various bacterial species. For instance, many Actinomyces naeslundii strains coaggregate with Streptococcus sanguis as a result of binding between a lectin produced by the A. naeslundii cells and β-galactose-containing structures on the surface of the streptococci. For the present assay, A. naeslundii PK29 and S. sanguis G9B were cultured overnight in a medium containing 2.5% tryptone, 1.5% yeast extract, 0.1% magnesium sulfate, and 1.0% fructose. The cells were then washed twice in a 1.0 mM potassium phosphate buffer (pH=6.8) containing 1.0 mM calcium chloride, 0.1 mM magnesium chloride, and 50.0 mM potassium chloride (buffered KCl), after which they were resuspended in buffered KCl at an optical density (540 nm) of 1.5. The coaggregations were performed by combining 0.5 ml of each bacterial suspension with 0.2 ml of 5.0% bovine serum albumin (BSA) and 0.8 ml of an appropriate concentration of a targeted anti-plaque agent in 3.0 ml capped polystyrene cuvettes. The cuvettes (path length 1 cm) were gently inverted at room temperature, and the optical density (540 nm) was determined as a function of time (2.0 min intervals; 20 min).
(§2) The instrument employed to measure optical density was a variable wavelength spectrophotometer (Gilson Respons® Spectrophotometer, bought from Gilson).
(§3) The activity of a tested compound was expressed as inhibition relative to buffer controls (i.e., % inhibition=[1-change in optical density (inhibitor)]/change in optical density [control])×100.
(§4) The ability of various amino sugars (prepared as described in Examples 1 and 2) to target to β-galactose-specific binding proteins on A. naeslundii and thus to interfere with coaggregation interactions between A. naeslundii and S. sanguis was investigated. Coaggregation of Actinomyces naeslundii PK29 and Streptococcus sanguis G9B was performed as described in the Methods section (Bacterial Coaggregation Assay) above. Inhibition was calculated as 1.0--the change in optical density (540 nm) in the sample containing compound tested/the change in optical density in the coaggregation buffer control.

In a further test the test system is A. naeslundii PK29. As to the kind of experiment: Latex bead-bacterial agglutination assay (asialofetuin-coated latex beads). Type of test: cell-based, Actinomyces naeslundii PK29. Here is the method: A latex bead agglutination assay was utilized to determine the effects of the amino sugars on lectin-mediated bacterial adherence to glycoprotein-coated surfaces. Latex beads (6.0 micrometer diameter) were prepared by suspending them in a 0.5 mg/ml solution of asialofetuin (a glycoprotein rich in oligosaccharide side chains which terminate in β-galactosyl groups) in 20.0 mM trishydroxyaminomethane buffer (ph=8.2) containing 0.73% glycine, 1.0% sodium chloride, 0.1 mM calcium chloride, and 0.02% sodium azide (TGS buffer). The beads were treated for 30.0 min at 37 degrees C. after which they were washed and resuspended in 0.1% BSA in TGS buffer. A. naeslundii PK29 cells were cultured as described in Bacterial Coaggregation Assay, washed, and resuspended in TGS buffer to an optical density (540 nm) of 1.5. The bacterial suspension (0.1 ml) and the prepared latex beads (1.0 ml) were combined with an appropriate concentration of inhibitor (0.8 ml) in 3.0 ml capped polystyrene cuvettes. The cuvettes were gently inverted at room temperature, and optical density (OD 540nm, 1 cm path length) was monitored at 2.0 min intervals for 20.0 min. The instrument employed was Gilson Response®.
The ability of the amino sugars to inhibit bacterial adhesion was also tested using the latex bead assay described above (Methods section). This assay measures the ability of the test agents to interfere with bacterial adhesion to a glycoprotein-coated solid surface, which is analogous to pellicle coated tooth surface. Agglutination of asialofetuin-coated latex beads by A. naeslundii PK29 performed as described above. Inhibition was calculated as 1.0--the change in optical density (540 nm) in the sample containing the inhibitor/the change in optical density in the coaggregation buffer control.

Test [3] relates to Actinomyces naeslundii. The note with it: cited from earlier work.
A further test relates to Actinomyces viscosus. The note with it: cited from earlier work.
Test [4] deals with Actinomyces naeslundii. As to the kind of experiment: Antimicrobial activity determination (MIC). Type of test: cell-based. The note with it: read-out: Minimum Inhibitory Concentration, Actinomyces naeslundii. How it is done:
(§5) The antimicrobial activity of the targeted agents was assessed by determining the minimum inhibitory concentration (MIC). Pure cultures of various strains of oral bacterial species as indicated in Table 3 were combined with serial dilutions of the targeted agents in beef heart infusion broth (BHI); starting bacterial concentrations were approximately 1.0×10E6 colony forming units (CFU) per ml. The mixtures were incubated aerobically at 37 degrees C. and the optical density (540 nm, path length 1 cm) of the cultures was measured at 0.0, 24.0 and 48.0 hr using Bausch and Lomb Spec 20 variable wavelength spectrophotometer.
(§6) The amino sugars within the scope of the invention and other compounds were tested for their bacteriostatic effects on the growth of several species of oral bacteria.

A further test concerns Streptococcus sobrinus. The test is described as follows: Antimicrobial activity determination (MIC). The note with it: read-out: Minimum Inhibitory Concentration, Streptococcus sobrinus. In kind it is cell-based, Streptococcus sobrinus 6715. Here is the method:
as §5, §6

The test system of a further test is Neisseria subflava. As to the kind of experiment: Antimicrobial activity determination (MIC). Type of test: cell-based, Neisseria subflava A1078. The note with it: read-out: Minimum Inhibitory Concentration, Neisseria subflava. How it is done:
as §5, §6

In test [5] the test system is coaggregation of Actinomyces naeslundii PK29 and Streptococcus sanguis G9B (β-galactose-specific binding proteins on A. naeslundii). The test is described as follows: Bacterial coaggregation assay (A. naeslundii PK29 with S. sanguis G9B). In kind it is cell-based. The note with it: for inhibition compared to the parent saccharide, lactose: vs lactose. How it is done: as §1, §2, §3, §4

The test system of a further test is Streptococcus sanguis. As to the kind of experiment: Antimicrobial activity determination (MIC). In kind it is cell-based. The note with it: read-out: Minimum Inhibitory Concentration, Streptococcus sanguis. How it is done:
as §5, §6

A further test concerns Porphyromonas gingivalis. As to the kind of experiment: Antimicrobial activity determination (MIC). The note with it: read-out: Minimum Inhibitory Concentration, Porphyromonas gingivalis. Type of test: cell-based, Porphyromonas gingivalis W83. How it is done:
as §5, §6

The next test has as its system Prevotella intermedius. As to the kind of experiment: Antimicrobial activity determination (MIC). In kind it is cell-based, Prevotella intermedius 25611. The note with it: BHI broth, 37 degrees C., aerobic, read-out: Minimum Inhibitory Concentration, Prevotella intermedius. Here is the method: as §5, §6
The test system of another test is Veillonella dispar. The test is described as follows: Antimicrobial activity determination (MIC). In kind it is cell-based, Veillonella dispar 17745. The note with it: BHI broth, 37 degrees C., aerobic, read-out: Minimum Inhibitory Concentration, Veillonella dispar. How it is done:
as §5, §6

Setting [6] is: BHI broth, 37 degrees C., aerobic.

≈ marks a conversion by molar mass, not a printed value. Like-named read-outs stand apart in the source and are kept apart here.

Consider `CCO[C@H]1O[C@H](CO)[C@H](O)[C@H](O[C@@H]2O[C@H](CO)[C@H](O)[C@H](O)[C@H]2NC(C)=O)[C@H]1O` [GalNAcβ-3Galα1-O-ethyl], for which the adherence entry in test [1] is recorded as “blocked adherence”. Also, the plaque inhibitory activity entry in the test on Clinical plaque strains is on record as “plaque inhibitory activity”.
Turning to `O=C[C@H](O)[C@@H](O)[C@@H](O)[C@H](O)CO` [Galactose, reference compound], the inhibition at 2800 µM stood at 10% in [2] and 17% in the test on A. naeslundii PK29 (Actinomyces naeslundii, PK29).
`OC[C@H]1O[C@@H](O[C@H]2[C@H](O)[C@@H](O)C(O)O[C@@H]2CO)[C@H](O)[C@@H](O)[C@H]1O` (stereo partly drawn) [Lactose, reference compound] displayed an inhibition at 3000 µM in [2] of 61%.
In the case of `CCOC1O[C@H](CO)[C@H](O)[C@H](O[C@@H]2O[C@H](CO)[C@H](O)[C@H](O)[C@H]2NC(C)=O)[C@H]1O` (stereo partly drawn) [N-acetyl-galactosamine-β1,3-galactose-O-ethyl], the “inhibition of binding to human erythrocytes” value with Actinomyces naeslundii [3] and in the test with Actinomyces viscosus was “inhibitor of binding” each time.
`CCCCCCCCCCN[C@@H]1O[C@H](CO)[C@H](O)[C@H](O)[C@H]1O` [N-decyl galactosylamine]: the inhibition at 1800 µM in the test with A. naeslundii PK29 (Actinomyces naeslundii, PK29) stood at 51%. In the test with A. naeslundii PK29 (vs galactose), the “inhibition of agglutination compared to galactose” value is on record as “substantially more potent inhibitor”.
`CCCCCCCCCCNC1O[C@H](CO)[C@@H](O)[C@H](O)[C@H]1O` (stereo partly drawn) [N-decyl glucosylamine]: the “inhibition of agglutination of glycoprotein-coated latex beads (in words)” value with A. naeslundii PK29 is reported as “not an effective inhibitor”. In addition, the inhibition at 1800 µM with A. naeslundii PK29 (Actinomyces naeslundii, PK29) was determined as 9%. Further, the MIC with Actinomyces naeslundii [4] (setting [6]) is over 5000 µg/mL.
Turning to `CCCCCCCCCCN[C@@H]1O[C@H](CO)[C@@H](O[C@@H]2O[C@H](CO)[C@H](O)[C@H](O)[C@H]2O)[C@H](O)[C@H]1O` [N-decyl lactosylamine], the MIC in the test on Streptococcus sobrinus (setting [6]) was 30 µg/mL (≈ 62.3 µM). In the test with Neisseria subflava (setting [6]), the MIC stood at 60 µg/mL (≈ 125 µM). For the same compound, in test [5], the “inhibition of β-galactose-specific coaggregation (in words)” value is “effective inhibitors” and the “inhibition compared to the parent saccharide, lactose” value is “slighly improved inhibition”. Also, in test [2], the inhibition at 1000 µM was determined as 11%, the inhibition at 2100 µM came to 30% and 3000 µM produced 64% inhibition. Moreover, the MIC in the test on Streptococcus sanguis (setting [6]) worked out at 600 µg/mL (≈ 1250 µM). Besides, in the test on Actinomyces naeslundii [4] (setting [6]), the MIC stood at 30 µg/mL (≈ 62.3 µM).
Turning to `CCCCCCCN[C@@H]1O[C@H](CO)[C@H](O)[C@H](O)[C@H]1O` [N-heptyl galactosylamine], the MIC with Streptococcus sobrinus (setting [6]) was 1000 µg/mL (≈ 3610 µM); with Neisseria subflava (setting [6]) it was 125 µg/mL (≈ 451 µM); in the test with Porphyromonas gingivalis (setting [6]) it was 125 µg/mL (≈ 451 µM); in the test on Streptococcus sanguis (setting [6]), over 1000 µg/mL; in the test with Actinomyces naeslundii [4] (setting [6]), 250 µg/mL (≈ 901 µM). Besides, in test [5], the “inhibition of β-galactose-specific coaggregation (in words)” value is listed as “effective inhibitors”. Also, the “inhibition of bacterial coaggregation compared to the parent saccharide, galactose” value in [5] (at the concentration tested, vs galactose) is recorded as “approximately twice as much”. The compound also yielded an inhibition at 2900 µM in [2] of 20%.
In the case of `CCCCCCCN[C@@H]1O[C@H](CO)[C@@H](O[C@@H]2O[C@H](CO)[C@H](O)[C@H](O)[C@H]2O)[C@H](O)[C@H]1O` [N-heptyl lactosylamine], the MIC is 1000 µg/mL (≈ 2280 µM) in the test on Streptococcus sobrinus (setting [6]); 500 µg/mL (≈ 1140 µM) in the test on Neisseria subflava (setting [6]); 500 µg/mL (≈ 1140 µM) in the test with Porphyromonas gingivalis (setting [6]); over 1000 µg/mL with Streptococcus sanguis (setting [6]); 500 µg/mL (≈ 1140 µM) with Actinomyces naeslundii [4] (setting [6]). Besides, the “inhibition of β-galactose-specific coaggregation (in words)” value in test [5] is “effective inhibitors”. Moreover, the “inhibition compared to the parent saccharide, lactose” value in test [5] was “slighly improved inhibition”. Besides, the inhibition at 1100 µM in [2] is 23%. The inhibition at 3000 µM in [2] turned out to be 63%. At 11400 µM the inhibition in test [2] was 79%.
For the compound `CCCCCCCCNC1O[C@H](CO)[C@@H](O)[C@H](O)[C@H]1O` (stereo partly drawn) [N-octyl glucosylamine, reference compound], the “inhibition of β-galactose-specific coaggregation (in words)” value in test [5] is “lack of inhibition”. In [2], this compound had an inhibition at 3400 µM of 0%.
On to `CCCCCCCCCCCCOS(=O)(=O)[O-].[Na+]` [Sodium dodecyl sulfate, reference compound], for which the MIC with Streptococcus sobrinus worked out at 60 µg/mL; in the test on Neisseria subflava, 8 µg/mL; in the test on Prevotella intermedius, 16 µg/mL; in the test with Porphyromonas gingivalis it was 2 µg/mL; in the test on Streptococcus sanguis, 15 µg/mL; in the test on Actinomyces naeslundii [4], 8 µg/mL. Further, the MIC in the test on Veillonella dispar is 60 µg/mL.

These data come from patent US5362480A, “Oral hygiene compositions containing amino sugars as antiplaque agents” (Lever Brothers Company, Division of Conopco, Inc., priority 1992, dated 1994).
